Each molecule was assayed against CDK2 (human) (UniProt P24941) (assay: Enzyme Assay).

IC50, < 1000 nM:
COc1ccc(S(C)(=O)=O)cc1C(=O)Nc1c[nH]nc1-c1nc(C(F)(F)F)c(C)[nH]1
Cc1cc(C(=O)Nc2c[nH]nc2-c2nc(C(F)(F)F)c(C)[nH]2)no1
Cc1[nH]c(-c2n[nH]cc2NC(=O)c2ccc3c(c2)OCC3)nc1C(F)(F)F
COc1cccc(Cl)c1C(=O)Nc1c[nH]nc1-c1nc(C(F)(F)F)c(C)[nH]1
COc1ccc(F)cc1C(=O)Nc1c[nH]nc1-c1nc(C(F)(F)F)c(C)[nH]1
Cc1[nH]c(-c2n[nH]cc2NC(=O)c2c(F)cc(F)cc2F)nc1C(F)(F)F
CCOc1ccccc1C(=O)Nc1c[nH]nc1-c1nc(C(F)(F)F)c(C)[nH]1
Cc1[nH]c(-c2n[nH]cc2NC(=O)c2cc(CN3CCOCC3)c(C)o2)nc1C(F)(F)F
Cc1[nH]c(-c2n[nH]cc2NC(=O)c2cccc3c2OCC3)nc1C(F)(F)F
Cc1[nH]c(-c2n[nH]cc2NC(=O)c2ccco2)nc1C(F)(F)F
Cc1[nH]c(-c2n[nH]cc2NC(=O)CC2CC2)nc1C(F)(F)F
Cc1[nH]c(-c2n[nH]cc2NC(=O)C(C#N)C2CC2)nc1C(F)(F)F (stereo not drawn)
Cc1[nH]c(-c2n[nH]cc2NC(=O)c2onc3ccccc23)nc1C(F)(F)F

Reference: the Kinase Knowledgebase extract (Sharma et al. 2016)
